# Test results as given in paper PMC7904550, “Application of grouping and read-across for the evaluation of parabens of different chain lengths with a particular focus on endocrine properties” (Archives of Toxicology, 2021).
# Marks after values point to notes of the source that are not given here.
# Assays:
# [1] = Acid dissociation constant (pKa); assay type: physicochemical; conditions: OECD TG 112; read-out: pKa
# From the text: Generally, these parabens have very similar physico-chemical properties.
# rats = experiment: Genetic toxicity in vivo (rats); set-up: species or system rat; conditions: in vivo OECD TG 478 overriding in vitro OECD TG 473
# Wistar rats = experiment: Higher-tier studies taken together (OECD TG 408, 414, 421/422, 443): NOAEL; conditions: over all higher-tier studies
# Description: All in vivo studies were conducted as oral gavage studies, selecting the oral route as most appropriate route of administration to reflect the worst-case exposure scenario. […] The OECD TG 443 included mating of first generation (F1) offspring to produce a second generation (F2), and the DIT and DNT cohorts.
# mammalian cells = conditions: OECD 473 or 487; ref ECHA dissemination portal; cited from earlier work
smiles,measurement,setting,value
"COC(=O)c1ccc(O)cc1 [Methyl paraben, Methyl 4-hydroxybenzoate]",pKa,[1],8.4
same,Overall WoE conclusion on genotoxicity,rats,"[d] While methyl paraben exhibited in vitro clastogenicity with metabolic activation in an OECD TG 473 study, absence of in vivo clastogenicity in an OECD TG 478 study is overriding in the WoE evaluation so that the overall WoE conclusion is absence of genotoxicity"
same,NOAEL: Accessory sex organs HP,Wistar rats,1000 / 1000 mg/kg bw/day
same,NOAEL: Adrenals HP,Wistar rats,1000 / 1000 mg/kg bw/day
same,NOAEL: Adrenals weight,Wistar rats,1000 / 1000 mg/kg bw/day
same,NOAEL: Age at balano-preputial separation,Wistar rats,1000 / 1000 mg/kg bw/day
same,NOAEL: Age at vaginal opening,Wistar rats,1000 / 1000 mg/kg bw/day
same,NOAEL: Anogenital distance,Wistar rats,1000 / 1000 mg/kg bw/day
same,NOAEL: Auditory startle,Wistar rats,1000 / 1000 mg/kg bw/day
same,NOAEL: Brain HP,Wistar rats,1000 / 1000 mg/kg bw/day
same,NOAEL: Brain morphometric evaluation,Wistar rats,1000 / 1000 mg/kg bw/day
same,NOAEL: Brain weight,Wistar rats,1000 / 1000 mg/kg bw/day
same,NOAEL: Cervix HP,Wistar rats,1000 / 1000 mg/kg bw/day
same,NOAEL: Coagulating gland HP,Wistar rats,1000 / 1000 mg/kg bw/day
same,NOAEL: Coagulating gland weight,Wistar rats,1000 / 1000 mg/kg bw/day
same,NOAEL: Colloid area (thyroid HP),Wistar rats,1000 / 1000 mg/kg bw/day
same,NOAEL: Dystocia,Wistar rats,1000 / 1000 mg/kg bw/day
same,NOAEL: Epididymis HP,Wistar rats,1000 / 1000 mg/kg bw/day
same,NOAEL: Epididymis weight,Wistar rats,1000 / 1000 mg/kg bw/day
same,NOAEL: Fertility,Wistar rats,1000 / 1000 mg/kg bw/day
same,NOAEL: Foetal development,Wistar rats,1000 / 1000 mg/kg bw/day
same,NOAEL: Functional observation battery,Wistar rats,1000 / 1000 mg/kg bw/day
same,NOAEL: Genital abnormalities,Wistar rats,1000 / 1000 mg/kg bw/day
same,NOAEL: Gestation length,Wistar rats,1000 / 1000 mg/kg bw/day
same,NOAEL: Litter / pup weight,Wistar rats,1000 / 1000 mg/kg bw/day
same,NOAEL: Litter size,Wistar rats,1000 / 1000 mg/kg bw/day
same,NOAEL: Litter viability,Wistar rats,1000 / 1000 mg/kg bw/day
same,NOAEL: Liver weight,Wistar rats,1000 / 1000 mg/kg bw/day
same,NOAEL: Mammary gland HP; females,Wistar rats,1000 / 1000 mg/kg bw/day
same,NOAEL: Mammary gland HP; males,Wistar rats,1000 / 1000 mg/kg bw/day
same,NOAEL: Motor activity,Wistar rats,1000 / 1000 mg/kg bw/day
same,NOAEL: Nipple development,Wistar rats,1000 / 1000 mg/kg bw/day
same,"NOAEL: No. of implantations, corpora lutea",Wistar rats,1000 / 1000 mg/kg bw/day
same,NOAEL: No. of live births,Wistar rats,1000 / 1000 mg/kg bw/day
same,NOAEL: No. of ovarian follicles,Wistar rats,1000 / 1000 mg/kg bw/day
same,NOAEL: Oestrus cyclicity,Wistar rats,1000 / 1000 mg/kg bw/day
same,NOAEL: Offspring: learning & memory,Wistar rats,1000 / 1000 mg/kg bw/day
same,NOAEL: Ovary HP,Wistar rats,1000 / 1000 mg/kg bw/day
same,NOAEL: Ovary weight,Wistar rats,1000 / 1000 mg/kg bw/day
same,NOAEL: Oviduct HP,Wistar rats,1000 / 1000 mg/kg bw/day
same,NOAEL: Pituitary HP,Wistar rats,1000 / 1000 mg/kg bw/day
same,NOAEL: Pituitary weight,Wistar rats,1000 / 1000 mg/kg bw/day
same,NOAEL: Postimplantation loss,Wistar rats,1000 / 1000 mg/kg bw/day
same,NOAEL: Pre-implantation loss,Wistar rats,1000 / 1000 mg/kg bw/day
same,NOAEL: Presence of anomalies,Wistar rats,1000 / 1000 mg/kg bw/day
same,NOAEL: Prostate HP,Wistar rats,1000 / 1000 mg/kg bw/day
same,NOAEL: Prostate weight,Wistar rats,1000 / 1000 mg/kg bw/day
same,NOAEL: Pup development,Wistar rats,1000 / 1000 mg/kg bw/day
same,NOAEL: Reproduction,Wistar rats,1000 / 1000 mg/kg bw/day
same,NOAEL: Seminal vesicles HP,Wistar rats,1000 / 1000 mg/kg bw/day
same,NOAEL: Seminal vesicles weight,Wistar rats,1000 / 1000 mg/kg bw/day
same,NOAEL: Testis HP,Wistar rats,1000 / 1000 mg/kg bw/day
same,NOAEL: Testis weight,Wistar rats,1000 / 1000 mg/kg bw/day
same,NOAEL: Thyroid HP,Wistar rats,1000 / 1000 mg/kg bw/day
same,NOAEL: Thyroid stimulating hormone level,Wistar rats,1000 / 1000 mg/kg bw/day
same,NOAEL: Thyroid weight,Wistar rats,1000 / 1000 mg/kg bw/day
same,NOAEL: Time to mating,Wistar rats,1000 / 1000 mg/kg bw/day
same,NOAEL: Triiodothyronine / thyroxine level,Wistar rats,1000 / 1000 mg/kg bw/day
same,NOAEL: Uterus HP (with cervix),Wistar rats,1000 / 1000 mg/kg bw/day
same,NOAEL: Uterus weight (with cervix),Wistar rats,1000 / 1000 mg/kg bw/day
same,NOAEL: Vagina HP,Wistar rats,1000 / 1000 mg/kg bw/day
same,NOAEL: Vaginal smears,Wistar rats,1000 / 1000 mg/kg bw/day
same,Cytogenicity in mammalian cells classification,mammalian cells,Clastogenic with metabolic activation (OECD 473; 1987) [d]
